# Assay: MIC of test compounds against various organisms
# Format: cell-based
# Description: The MIC (μg/ml) of test compounds against various organisms may be determined:
# S. epidermidis CL7, S. aureus WCUH29, S. pneumoniae 1629, S. pyogenes CN10, H. influenzae ATCC49247, E. faecalis 2, E. faecium 8, M. catarrhalis Ravisio, E. coli 7623.
# [1] = versus all of these organisms (S. epidermidis CL7, S. aureus WCUH29, S. pneumoniae 1629, S. pyogenes CN10, H. influenzae ATCC49247, E. faecalis 2, E. faecium 8, M. catarrhalis Ravisio, E. coli 7623)
MIC [1] [µg/mL],MIC (versus some of these organisms (panel of b704; which ones not stated)) [µg/mL],Structure (SMILES)
≤ 2,–,"COc1ccc2nccc([C@@H](O)CN3CCC(NCc4ccc5c(n4)NC(=O)CS5)C(F)C3)c2c1 (single isomer, unassigned) [Example 6]"
≤ 2,–,"COc1ccc2nccc([C@@H](O)CN3CCC(NCc4ccc5c(n4)NC(=O)CO5)C(F)C3)c2c1 (single isomer, unassigned) [Example 10]"
≤ 2,–,"COc1ccc2nccc([C@@H](O)CN3CCC(NCc4ccc5c(n4)NC(=O)CO5)C(F)C3)c2n1 (single isomer, unassigned) [Example 20]"
≤ 2,–,"COc1ccc2nccc([C@@H](O)CN3CCC(NCc4nc5c(cc4Cl)OCC(=O)N5)C(F)C3)c2n1 (single isomer, unassigned) [Example 24]"
≤ 2,–,"COc1cc(F)c2nccc([C@@H](O)CN3CCC(NCc4ccc5c(n4)NC(=O)CO5)C(F)C3)c2c1 (single isomer, unassigned) [Example 26]"
≤ 2,–,"COc1cc(F)c2nccc([C@@H](O)CN3CCC(NCc4ccc5c(n4)NC(=O)CS5)C(F)C3)c2c1 (single isomer, unassigned) [Example 27]"
–,≤ 16,COc1ccc2nccc([C@@H](O)CN3CC[C@@H](NCc4ccc5c(n4)NC(=O)CS5)C[C@H]3C(F)(F)F)c2n1 [Example 37]
